The values that follow come from patent publication US7615557B2, “Tetrahydro-naphthalene and urea derivatives” (Xention Limited, priority 2003, dated 2009).

Structures are written as SMILES.

Data set [1] addresses T1, Human vanilloid receptor (hVR1) (Homo sapiens, UniProt Q8NER1).
T1 construct: expressed in transfected cells
The data set is described as follows: Capsaicin-induced Ca2+ influx in the human VR1-transfected CHO cell line (Assay 1). It counts as cell-based. The conditions noted are these: human VR1-CHOluc9aeq cells, stimulation with 10 nM capsaicin, Fluo-3 fluorescence (FDSS-3000); read-out: Activity Class (IC50). The text has this: [Measurement of Capsaicin-induced Ca^2+ influx in the Human VR1-transfected CHO Cell Line] (Assay 1)
• (1) Establishment of the Human VR1-CHOluc9aeq Cell Line • Human vanilloid receptor (hVR1) cDNA was cloned from libraries of axotomized dorsal root ganglia (WO 00/29577). The cloned hVR1 cDNA was constructed with pcDNA3 vector and transfected into a CHOluc9aeq cell line. The cell line contains aequorin and CRE-luciferase reporter genes as read-out signals. The transfectants were cloned by limiting dilution in selection medium (DMEM/F12 medium (Gibco BRL) supplemented with 10%
FCS, 1.4 mM Sodium pyruvate, 20 mM HEPES, 0.15% Sodium bicarbonate, 100 U/ml penicillin, 100 μg/ml streptomycin, 2 mM glutamine, non-essential amino acids and 2 mg/ml G418). Ca^2+ influx was examined in the capsaicin-stimulated clones. A high responder clone was selected and used for furter experiments in the project. The human VR1-CHOluc9aeq cells were maintained in the selection medium and passaged every 3-4 days at 1-2.5×10^5 cells/flask ([…]). • (2) Measurement of Ca^2+ Influx Using FDSS-3000 • Human VR1-CHOluc9aeq cells were suspended in a culture medium which is the same as the selection medium except for G418 and seeded at a density of 1,000 cells per well into 384-well plates (black walled clear-base/Nalge Nunc International). Following the culture for 48 hrs the medium was changed to 2 μM Fluo-3 AM (Molecular Probes) and 0.02% Puronic F-127 in assay buffer (Hank's balanced salt solution (HBSS), 17 mM HEPES (pH7.4), 1 mM Probenecid, 0.1% BSA) and the cells were incubated for 60 min at 25° C. After washing twice with assay buffer the cells were incubated with a test compound or vehicle for 20 min at 25° C. Mobilization of cytoplasmic Ca^2+ was measured by FDSS-3000 (λex=488 nm, λem=540 nm/Hamamatsu Photonics) for 60 sec after the stimulation with 10 nM capsaicin. Integral R was calculated and compared with controls. [Measurement of the Capsaicin-induced Ca^2+ Influx in Primary Cultured Rat Dorsal Root Ganglia Neurons] (Assay 2) • (1) Preparation of Rat Dorsal Root Ganglia Neurons • New born Wister rats (5-11 days) were sacrificed and dorsal root ganglia (DRG) was removed. DRG was incubated with 0.1% trypsin (Gibco BRL) in PBS(−) (Gibco BRL) for 30 min at 37° C., then a half volume of fetal calf serum (FCS) was added and the cells were spun down. The DRG neuron cells were resuspended in Ham F12/5% FCS/5% horse serum (Gibco BRL) and dispersed by repeated pipetting and passing through 70 μm mesh (Falcon). The culture plate was incubated for 3 hours at 37° C. to remove contaminating Schwann cells. Non-adherent cells were recovered and further cultured in laminin-coated 384 well plates (Nunc) at 1×10^4 cells/50 μl/well for 2 days in the presence of 50 ng/ml recombinant rat NGF (Sigma) and 50 μM 5-fluorodeoxyuridine (Sigma). • (2) Ca^2+ Mobilization Assay • DRG neuron cells were washed twice with HBSS supplemented with 17 mM BEPES (pH 7.4) and 0.1% BSA. After incubating with 2 μM fluo-3AM (Volectuar Probe), 0.02% PF127 (Gibco BRL) and 1 mM probenecid (Sigma) for 40 min at 37° C., cells were washed 3 times. The cells were incubated with VR1 antagonists or vehicle (dimethylsulfoxide) and then with 1 μM capsaicin in FDSS-6000 (λex=480 mn, λem=520 nm/Hamamatsu Photonics). The fluorescence changes at […] were monitored for 2.5 min. Integral R was calculated and compared with controls. [Organ Bath Assay to Measure the Capsaicin-induced Bladder Contraction] (Assay 3) • Male Wistar rats (10 week old) were anesthetized with ether and sacrificed by dislocating the necks. The whole urinary bladder was excised and placed in oxygenated Modified Krebs-Henseleit solution (pH 7.4) of the following composition (112 mM NaCl, 5.9 mM KCl, 1.2 mM MgCl2, 1.2 mM NaH2PO4, 2 mM CaCl2, […], 12 mM glucose). Contractile responses of the urinary bladder were studied as described previously [Maggi C A et al: Br. J. Pharmacol. 108: 801-805, 1993]. […]

T1 sequence (Q8NER1 whole entry): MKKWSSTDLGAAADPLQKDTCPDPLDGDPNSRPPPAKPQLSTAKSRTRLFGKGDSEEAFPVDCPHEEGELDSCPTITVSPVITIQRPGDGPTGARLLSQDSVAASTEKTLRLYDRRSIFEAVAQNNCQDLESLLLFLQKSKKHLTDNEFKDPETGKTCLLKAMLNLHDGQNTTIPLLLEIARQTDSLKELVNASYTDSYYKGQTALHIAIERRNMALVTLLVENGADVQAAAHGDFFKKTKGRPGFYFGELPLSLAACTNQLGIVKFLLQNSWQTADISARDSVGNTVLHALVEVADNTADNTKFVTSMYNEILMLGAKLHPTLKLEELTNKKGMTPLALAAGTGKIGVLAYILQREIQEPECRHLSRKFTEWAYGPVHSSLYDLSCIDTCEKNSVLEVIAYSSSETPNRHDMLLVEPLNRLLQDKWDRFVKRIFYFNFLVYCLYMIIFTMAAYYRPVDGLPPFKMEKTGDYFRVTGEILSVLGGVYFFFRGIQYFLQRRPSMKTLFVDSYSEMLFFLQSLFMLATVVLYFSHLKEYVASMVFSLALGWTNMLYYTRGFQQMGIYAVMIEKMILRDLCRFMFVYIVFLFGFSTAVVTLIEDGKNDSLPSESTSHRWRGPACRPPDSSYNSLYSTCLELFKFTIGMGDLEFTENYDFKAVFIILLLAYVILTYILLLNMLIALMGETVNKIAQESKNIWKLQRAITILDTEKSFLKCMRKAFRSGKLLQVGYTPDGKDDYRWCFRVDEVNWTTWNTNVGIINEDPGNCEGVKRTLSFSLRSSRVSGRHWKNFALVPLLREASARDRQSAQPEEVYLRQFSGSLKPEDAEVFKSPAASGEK

In the case of `O=C(Nc1cccc2c1C[C@H](O)CC2)C1CCN(c2ccc(C(F)(F)F)cc2Cl)CC1` [Example 1-13, 1-[2-Chloro-4-(trifluoromethyl)phenyl]-N-[(7R)-7-hydroxy-5,6,7,8-tetrahydronaphthalen-1-yl]piperidine-4-carboxamide], the melting point was 226 °C. Besides, the IC50 in data set [1] is below 100 nM.

What is called melting point is the temperature, or range, at which the solid turns liquid. The term IC50 denotes the concentration that gives 50% inhibition.
